Data reported in patent US20190307776A1, “AZA-S[…] HUMAN IMMUNODEFICIENCY VIRUS REPLICATION” (priority 2016, published 2019).

The compounds below were run on recombinant NL4-3 virus (assay: HIV cell culture assay). Details: Human immunodeficiency virus 1, NL43, MT2.
Format: cell-based
Procedure: HIV cell culture assay—MT-2 cells and 293T cells were obtained from the NIH AIDS Research and Reference Reagent Program. MT-2 cells were propagated in RPMI 1640 media supplemented with 10% heat inactivated fetal bovine serum, 100 […]. The 293T cells were propagated in DMEM media supplemented with 10% heat inactivated fetal bovine serum (FBS), 100 units/ml penicillin G and 100 μg/ml streptomycin. The proviral DNA clone of NL4-3 was obtained from the NIH AIDS Research and Reference Reagent Program. A recombinant NL4-3 virus, in which a section of the nef gene from NL4-3 was replaced with the Renilla luciferase gene, was used as a reference virus. In addition, residue Gag P373 was converted to P373S. Briefly, the recombinant virus was prepared by transfection of the altered proviral clone of NL4-3. Transfections were performed in 293T cells using LipofectAMINE PLUS from Invitrogen (Carlsbad, Calif.), according to manufacturer's instruction. The virus was titered in MT-2 cells using luciferase enzyme activity as a marker. Luciferase was quantitated using the Dual Luciferase kit from Promega (Madison, Wis.), with modifications to the manufacturer's protocol. The diluted Passive Lysis solution was pre-mixed with the re-suspended Luciferase Assay Reagent and the re-suspended Stop & Glo Substrate (2:1:1 ratio). Fifty (50) μL of the mixture was added to each aspirated well on assay plates and luciferase activity was measured immediately on a Wallac TriLux (Perkin-Elmer). Antiviral activities of inhibitors toward the recombinant virus were quantified by measuring luciferase activity in cells infected for 4-5 days with NLRluc recombinants in the presence serial dilutions of the inhibitor.

`C=C(C)[C@@H]1CC[C@]2(CNCCCN3CCS(=O)(=O)CC3)CC[C@]3(C)[C@H](CC[C@@H]4[C@@]5(C)CCN(C/C=C/C(=O)O)C(C)(C)[C@@H]5CC[C@]43C)[C@@H]12` [Example 34, (E)-4-((4aR,6aR,6bR,8aS,11R,11aR,11bR,13aR,13bR)-8a-(((3-(1,1-dioxidothiomorpholino)propyl)amino)methyl)-4,4,6a,6b,13b-pentamethyl-11-(prop-1-en-2-yl)hexadecahydro-1H-cyclopenta[5,6]naphtho[2,1-f]isoquinolin-3(2H,4H,13bH)-yl)but-2-enoic acid] and `C=C(C)[C@@H]1CC[C@]2(CNCCCN3CCS(=O)(=O)CC3)CC[C@]3(C)[C@H](CC[C@@H]4[C@@]5(C)CCN(C(=O)C(=O)O)C(C)(C)[C@@H]5CC[C@]43C)[C@@H]12` [Example 37, 2-((4aR,6aR,6bR,8aS,11R,11aR,11bR,13aR,13bR)-8a-(((3-(1,1-dioxidothiomorpholino)propyl)amino)methyl)-4,4,6a,6b,13b-pentamethyl-11-(prop-1-en-2-yl)hexadecahydro-1H-cyclopenta[5,6]naphtho[2,1-f]isoquinolin-3(2H,4H,13bH)-yl)-2-oxoacetic acid] cannot be ordered by EC50: greater than 3000 nM for the first, greater than 3000 nM for the second.

Going from `C=C(C)[C@@H]1CC[C@]2(CNCCCN3CCS(=O)(=O)CC3)CC[C@]3(C)[C@H](CC[C@@H]4[C@@]5(C)CCN(CC(=O)NC(C)(C)C(=O)O)C(C)(C)[C@@H]5CC[C@]43C)[C@@H]12` [Example 35, 2-(2-((4aR,6aR,6bR,8aS,11R,11aR,11bR,13aR,13bR)-8a-(((3-(1,1-dioxidothiomorpholino)propyl)amino)methyl)-4,4,6a,6b,13b-pentamethyl-11-(prop-1-en-2-yl)hexadecahydro-1H-cyclopenta[5,6]naphtho[2,1-f]isoquinolin-3(2H,4H,13bH)-yl)acetamido)-2-methylpropanoic acid] to `C=C(C)[C@@H]1CC[C@]2(CN(C)CCCN3CCS(=O)(=O)CC3)CC[C@]3(C)[C@H](CC[C@@H]4[C@@]5(C)CCN(CC(=O)NC(C)(C)C(=O)O)C(C)(C)[C@@H]5CC[C@]43C)[C@@H]12` [Example 36, 2-(2-((4aR,6aR,6bR,8aS,11R,11aR,11bR,13aR,13bR)-8a-(((3-(1,1-dioxidothiomorpholino)propyl)(methyl)amino)methyl)-4,4,6a,6b,13b-pentamethyl-11-(prop-1-en-2-yl)hexadecahydro-1H-cyclopenta[5,6]naphtho[2,1-f]isoquinolin-3(2H,4H,13bH)-yl)acetamido)-2-methylpropanoic acid], the EC50 falls from greater than 3000 nM to 1300 nM.

`C=C(C)[C@@H]1CC[C@]2(CNCCCN3CCS(=O)(=O)CC3)CC[C@]3(C)[C@H](CC[C@@H]4[C@@]5(C)CCN(C(=O)C(=O)NC(C)(C)C(=O)O)C(C)(C)[C@@H]5CC[C@]43C)[C@@H]12` [Example 38, 2-(2-((4aR,6aR,6bR,8aS,11R,11aR,11bR,13aR,13bR)-8a-(((3-(1,1-dioxidothiomorpholino)propyl)amino)methyl)-4,4,6a,6b,13b-pentamethyl-11-(prop-1-en-2-yl)hexadecahydro-1H-cyclopenta[5,6]naphtho[2,1-f]isoquinolin-3(2H,4H,13bH)-yl)-2-oxoacetamido)-2-methylpropanoic acid] and `C=C(C)[C@@H]1CC[C@]2(CNCCCN3CCS(=O)(=O)CC3)CC[C@]3(C)[C@H](CC[C@@H]4[C@@]5(C)CCN(C(=O)C(=O)NC6(C(=O)O)CC6)C(C)(C)[C@@H]5CC[C@]43C)[C@@H]12` [Example 39, 1-(2-((4aR,6aR,6bR,8aS,11R,11aR,11bR,13aR,13bR)-8a-(((3-(1,1-dioxidothiomorpholino)propyl)amino)methyl)-4,4,6a,6b,13b-pentamethyl-11-(prop-1-en-2-yl)hexadecahydro-1H-cyclopenta[5,6]naphtho[2,1-f]isoquinolin-3(2H,4H,13bH)-yl)-2-oxoacetamido)cyclopropanecarboxylic acid] cannot be ordered by EC50: greater than 3000 nM for the first, greater than 3000 nM for the second.

Compared with `C=C(C)[C@@H]1CC[C@]2(CNCCCN3CCS(=O)(=O)CC3)CC[C@]3(C)[C@H](CC[C@@H]4[C@@]5(C)CCN(c6ccc(C#N)cn6)C(C)(C)[C@@H]5CC[C@]43C)[C@@H]12` [Example 40, 6-((4aR,6aR,6bR,8aS,11R,11aR,11bR,13aR,13bR)-8a-(((3-(1,1-dioxidothiomorpholino)propyl)amino)methyl)-4,4,6a,6b,13b-pentamethyl-11-(prop-1-en-2-yl)hexadecahydro-1H-cyclopenta[5,6]naphtho[2,1-f]isoquinolin-3(2H,4H,13bH)-yl)nicotinonitrile], `C=C(C)[C@@H]1CC[C@]2(CNCCCN3CCS(=O)(=O)CC3)CC[C@]3(C)[C@H](CC[C@@H]4[C@@]5(C)CCN(c6ccc(C(N)=O)cn6)C(C)(C)[C@@H]5CC[C@]43C)[C@@H]12` [Example 41, 6-((4aR,6aR,6bR,8aS,11R,11aR,11bR,13aR,13bR)-8a-(((3-(1,1-dioxidothiomorpholino)propyl)amino)methyl)-4,4,6a,6b,13b-pentamethyl-11-(prop-1-en-2-yl)hexadecahydro-1H-cyclopenta[5,6]naphtho[2,1-f]isoquinolin-3(2H,4H,13bH)-yl)nicotinamide] is 1.9-fold lower in EC50: 760 nM for the first, 400 nM for the second. The second is the more potent here.

First: C=C(C)[C@@H]1CC[C@]2(CNCCCN3CCS(=O)(=O)CC3)CC[C@]3(C)[C@H](CC[C@@H]4[C@@]5(C)CCN(c6ccc(C(=O)O)cn6)C(C)(C)[C@@H]5CC[C@]43C)[C@@H]12 [Example 42, 6-((4aR,6aR,6bR,8aS,11R,11aR,11bR,13aR,13bR)-8a-(((3-(1,1-dioxidothiomorpholino)propyl)amino)methyl)-4,4,6a,6b,13b-pentamethyl-11-(prop-1-en-2-yl)hexadecahydro-1H-cyclopenta[5,6]naphtho[2,1-f]isoquinolin-3(2H,4H,13bH)-yl)nicotinic acid]
Second: C=C(C)[C@@H]1CC[C@]2(CNCCCN3CCS(=O)(=O)CC3)CC[C@]3(C)[C@H](CC[C@@H]4[C@@]5(C)CCN(c6ccc(C(=O)O)nc6)C(C)(C)[C@@H]5CC[C@]43C)[C@@H]12 [Example 44, 5-((4aR,6aR,6bR,8aS,11R,11aR,11bR,13aR,13bR)-8a-(((3-(1,1-dioxidothiomorpholino)propyl)amino)methyl)-4,4,6a,6b,13b-pentamethyl-11-(prop-1-en-2-yl)hexadecahydro-1H-cyclopenta[5,6]naphtho[2,1-f]isoquinolin-3(2H,4H,13bH)-yl)picolinic acid]
The EC50 of the first is 2.3-fold lower: 3 nM for the first, 7 nM for the second.

First: C=C(C)[C@@H]1CC[C@]2(CNCCCN3CCS(=O)(=O)CC3)CC[C@]3(C)[C@H](CC[C@@H]4[C@@]5(C)CCN(c6ccc(C#N)nc6)C(C)(C)[C@@H]5CC[C@]43C)[C@@H]12 [Example 43, 5-((4aR,6aR,6bR,8aS,11R,11aR,11bR,13aR,13bR)-8a-(((3-(1,1-dioxidothiomorpholino)propyl)amino)methyl)-4,4,6a,6b,13b-pentamethyl-11-(prop-1-en-2-yl)hexadecahydro-1H-cyclopenta[5,6]naphtho[2,1-f]isoquinolin-3(2H,4H,13bH)-yl)picolinonitrile]
Second: C=C(C)[C@@H]1CC[C@]2(CNCCCN3CCS(=O)(=O)CC3)CC[C@]3(C)[C@H](CC[C@@H]4[C@@]5(C)CCN(c6ccc(N)cc6)C(C)(C)[C@@H]5CC[C@]43C)[C@@H]12 [Example 47, 4-(3-((((4aR,6aR,6bR,8aS,11R,11aR,11bR,13aR,13bR)-3-(4-aminophenyl)-4,4,6a,6b,13b-pentamethyl-11-(prop-1-en-2-yl)icosahydro-1H-cyclopenta[5,6]naphtho[2,1-f]isoquinolin-8a-yl)methyl)amino)propyl)thiomorpholine 1,1-dioxide]
The EC50 of the first is lower: 280 nM for the first, greater than 330 nM for the second. The first is the more potent here.

Going from `C=C(C)[C@@H]1CC[C@]2(CNCCCN3CCS(=O)(=O)CC3)CC[C@]3(C)[C@H](CC[C@@H]4[C@@]5(C)CCN(c6ccc(C(=O)O)c(F)c6)C(C)(C)[C@@H]5CC[C@]43C)[C@@H]12` [Example 45, 4-((4aR,6aR,6bR,8aS,11R,11aR,11bR,13aR,13bR)-8a-(((3-(1,1-dioxidothiomorpholino)propyl)amino)methyl)-4,4,6a,6b,13b-pentamethyl-11-(prop-1-en-2-yl)icosahdro-3H-cyclopenta[5,6]naphtho[2,1-f]isoquinolin-3-yl)-2-fluorobenzoic acid] to `C=C(C)[C@@H]1CC[C@]2(CNCCCN3CCS(=O)(=O)CC3)CC[C@]3(C)[C@H](CC[C@@H]4[C@@]5(C)CCN(c6ccc([N+](=O)[O-])cc6)C(C)(C)[C@@H]5CC[C@]43C)[C@@H]12` [Example 46, 4-(3-((((4aR,6aR,6bR,8aS,11R,11aR,11bR,13aR,13bR)-4,4,6a,6b,13b-pentamethyl-3-(4-nitrophenyl)-11-(prop-1-en-2-yl)icosahydro-1H-cyclopenta[5,6]naphtho[2,1-f]isoquinolin-8a-yl)methyl)amino)propyl)thiomorpholine 1,1-dioxide], the EC50 rises from 20 nM to greater than 330 nM.
